From patent US7449595B2, “Nitrosated and nitrosylated prostaglandins, compositions and methods of use” (NitroMed, Inc., priority 1999, dated 2008)

Key:
[1] = tested on: human corpus cavernosum tissue; test: Measurement of cGMP in human corpus cavernosum tissues (ELISA); assay type: cell-based; details: 5 min incubation after 30 μM Zaprinast and 100 μM IBMX, n=5
Protocol: Human corpus cavernosum specimens were obtained from impotent men at the time of penile prosthesis insertion. Tissues were maintained at 4-6° C. in M-400 solution (composition per 100 ml: mannitol, 4.19 g; KH2PO4, 0.205 g; K2HPO4.3H2O, 0.97 g; KCl, 0.112 g; NaHCO3, 0.084 g) until used. Corpus cavernosum tissues were typically used between 2 and 16 hours from extraction. Measurement of cyclic GMP in corpus cavernosal tissues was carried out as follows. Corpus cavernosal tissue strips (3×3×7 mm) were immersed in a 8 ml organ chamber containing physiological salt solution, maintained at 37° C. and aerated with 5% CO2/95% air, pH 7.4. […] Tissues were incubated for another 5 minutes then immediately frozen in liquid nitrogen and stored at -80° C. until extraction for cyclic nucleotide assay. Tissues were extracted by homogenization in 6% trichloroacetic acid followed by ether (H2O-saturated) extraction and lyophilization. cGMP levels were determined by ELISA using a kit from Cayman Chemical (Ann Arbor, Mich.). Protein concentration in the corpus cavernosum tissue was determined using the Bio-Rad Protein Assay Kit microtiter plate assay procedure (Bio-Rad, Hercules, Calif.) with bovine serum albumin as the standard. The measured concentrations of cGMP in picomoles were normalized based on milligrams of protein to provide a valid comparison between each tissue sample. […]

[2] = tested on: human corpus cavernosum tissue; test: Concentration response relaxation studies of human corpus cavernosum tissue strips contracted with phenylephrine; assay type: cell-based; details: compound alone, strips contracted with 0.5 μM phenylephrine, relaxation as % of 0.1 mM papaverine, n=5, read-out: EC50 (concentration required to obtain the half-maximum response) for relaxation
Protocol: Human corpus cavernosum specimens were obtained from impotent men at the time of penile prosthesis insertion. Tissues were maintained at 4-6° C. in M-400 solution (composition per 100 ml: mannitol, 4.19 g; KH2PO4, 0.205 g; K2HPO4.3H2O, 0.97 g; KCl, 0.112 g; NaHCO3, 0.084 g) until used. Corpus cavernosum tissues were typically used between 2 and 16 hours from extraction.
Concentration response relaxation studies of human corpus cavernosum tissues were conducted as follows. Corpus cavernosal tissue strips (3×3×7 mm), obtained as described in Example 2, were immersed in a 8 ml organ chamber containing physiological salt solution, maintained at 37° C. and aerated with 5% CO2/95% air, pH 7.4. Each strip was incrementally stretched to optimal isometric tension, as determined by maximal contractile responses to 1 μM phenylephrine. Relaxant responses were evaluated by adding increasing cumulative concentrations of compounds to the strips contracted with 0.5 μM phenylephrine. Relaxation responses were expressed as a percentage of total relaxation induced by the addition of 0.1 mM papaverine hydrochloride (total loss of tone) at the end of the experiment. In FIGS. 2 and 3, the data are expressed as mean±standard error. Statistical analysis were conducted using a two-factor ANOVA statistical analysis using StatView software for Apple computers.
The tissues were prepared according to Example 4. […]

SMILES | cGMP production compared to control ([1]; 100 μM GS-NO alone) | EC50 [2] | cGMP production compared to control ([1]; 1 μM PGE1 alone)
N[C@@H](CCC(=O)N[C@@H](CSN=O)C(=O)NCC(=O)O)C(=O)O [GS-NO, N-(N-L-γ-glutamyl-S-Nitroso-L-cysteinyl)glycine] | increased amounts of cGMP | 2560 ± 1300 nM | 
CCCCC[C@H](O)/C=C/[C@H]1[C@H](O)CC(=O)[C@@H]1CCCCCCC(=O)O [PGE1, 7-(5-((1E)(3S)-3-hydroxyoct-1-enyl)(1R,4R,5R)-4-(hydroxy-2-oxocyclopentyl)heptanoic acid)] |  | 83 ± 50 nM | did not produce a significant amount of cGMP
